Measurements: US12508300B2, “Acylated GLP-1 derivative” (Sciwind Biosciences Co., Ltd., priority 2019, dated 2025)

Molecular target: T1, trypsin (Bos taurus, UniProt P00760)
T1 construct: purchased Sigma T8003
T1 sequence (P00760 24-246): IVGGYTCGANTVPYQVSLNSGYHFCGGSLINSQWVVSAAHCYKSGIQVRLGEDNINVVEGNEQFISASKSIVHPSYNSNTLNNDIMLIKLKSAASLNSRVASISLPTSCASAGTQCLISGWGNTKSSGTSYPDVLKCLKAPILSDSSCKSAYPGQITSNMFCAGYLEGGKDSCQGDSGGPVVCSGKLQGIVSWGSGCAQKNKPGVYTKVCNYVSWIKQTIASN
Experiment: Trypsin degradation experiments
Format: in vitro ADME
Method: Pepsin (3200-4500 U/mg protein, from Sigma, catalog number: P6887), trypsin (approximately […] protein, from Sigma, catalog number: T8003).
B: Reaction buffer of trypsin: three 20 mM citric acid-phosphate buffers with different pH (4.0, 6.8, and 8.0) are prepared, then adding 0.005% Tween 20 and 0.001% BSA to prepare a reaction buffer of trypsin.
D: Simulated intestinal fluid containing trypsin (SIF): obtained by taking 0.0684 g of potassium dihydrogen phosphate, adding 2.5 ml of water to dissolve it, adding 0.77 ml of 0.2M sodium hydroxide solution and 5 ml of water, and then adding and dissolving 0.1001 g of trypsin; the pH is measured as 6.82, then diluting by adding water to 10 ml.
An appropriate amount of the stock solution of the test sample is taken respectively, then diluting it to 0.06 mg/ml with reaction buffers of trypsin with different pH; each group of reaction solution is divided into 1 ml/tube, a total of 7 tubes, then mixing well and incubating in a 37° C. water bath for 30 min. […]
HPLC assay is performed with samples from the enzyme degradation experiment. The peak area of the main peak of the sample without enzyme reaction at 0 point (recorded as −5 min) is used as the basal peak area, and the remaining percentage of the peak area of the main peak at different time points after enzyme addition is calculated.

CC[C@H](C)[C@H](NC(=O)[C@H](Cc1ccccc1)NC(=O)[C@H](CCC(=O)O)NC(=O)[C@H](CCCCNC(=O)COCCOCCNC(=O)COCCOCCNC(=O)CC[C@H](NC(=O)CCCCCCCCCCCCCCCCC(=O)O)C(=O)O)NC(=O)[C@H](C)NC(=O)[C@H](C)NC(=O)[C@H](CCC(N)=O)NC(=O)CNC(=O)[C@H](CCC(=O)O)NC(=O)[C@H](CC(C)C)NC(=O)[C@H](Cc1ccc(O)cc1)NC(=O)[C@H](CO)NC(=O)[C@H](CO)NC(=O)[C@@H](NC(=O)[C@H](CC(=O)O)NC(=O)[C@H](CO)NC(=O)[C@@H](NC(=O)[C@H](Cc1ccccc1)NC(=O)[C@@H](NC(=O)CNC(=O)[C@H](CCC(=O)O)NC(=O)C(C)(C)NC(=O)[C@@H](N)Cc1cnc[nH]1)[C@@H](C)O)[C@@H](C)O)C(C)C)C(=O)N[C@@H](C)C(=O)N[C@@H](Cc1c[nH]c2ccccc12)C(=O)N[C@@H](CC(C)C)C(=O)N[C@H](C(=O)N[C@@H](CCCNC(=N)N)C(=O)NCC(=O)N[C@@H](CCCNC(=N)N)C(=O)NCC(=O)O)C(C)C [Semaglutide, N-ε^26-[2-(2-[2-(2-[2-(2[4-(17-carboxyheptadecanoylamino)-4(s)-carboxybutyrylamino]ethoxy)ethoxy]acetylamino)ethoxy]ethoxy)acetyl][Aib^8, Arg^34]GLP-1-(7-37) peptide]
ability against trypsin degradation (in words) (pH4.0): show the ability against trypsin degradation | degradation rate by trypsin (in words) (pH6.8 and 8.0, n=4, FIG. 6): basically the same
